Test results as given in ChEMBL document CHEMBL1201862, “PubChem BioAssay data set” (2004).
Active and inactive are the calls of the source.

What was measured:
Large T antigen = Large T antigen (Simian virus 40, UniProt P03070); type: functional, Betapolyomavirus macacae;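 note: Confirmatory-stage PubChem screen for compounds that inhibit SV40 T antigen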
[1] = target: Intestinal-type alkaline phosphatase (Mus musculus, UniProt P24822); experiment: mouse intestinal alkaline phosphatase activators, dose response, biochemical, luminescence, uHTS hits (AID 488783); type: functional
Intestinal-type alkaline phosphatase (Mus musculus, UniProt P24822), sequence (P24822 whole entry): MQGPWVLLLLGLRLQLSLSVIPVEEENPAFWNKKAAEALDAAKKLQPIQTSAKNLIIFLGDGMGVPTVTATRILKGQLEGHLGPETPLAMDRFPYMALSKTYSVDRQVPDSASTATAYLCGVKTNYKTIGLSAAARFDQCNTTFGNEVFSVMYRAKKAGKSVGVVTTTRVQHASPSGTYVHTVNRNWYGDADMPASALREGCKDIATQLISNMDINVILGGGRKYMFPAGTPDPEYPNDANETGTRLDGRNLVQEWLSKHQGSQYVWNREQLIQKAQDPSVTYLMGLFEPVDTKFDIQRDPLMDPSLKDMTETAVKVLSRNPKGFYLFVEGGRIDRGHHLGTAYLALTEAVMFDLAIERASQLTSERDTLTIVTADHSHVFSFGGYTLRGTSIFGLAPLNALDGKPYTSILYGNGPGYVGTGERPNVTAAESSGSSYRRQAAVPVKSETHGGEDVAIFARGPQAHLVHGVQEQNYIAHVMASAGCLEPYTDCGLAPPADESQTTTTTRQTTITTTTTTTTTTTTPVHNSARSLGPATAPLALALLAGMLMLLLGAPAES

[2] = target: Intestinal-type alkaline phosphatase (Homo sapiens, UniProt P09923); experiment: activation of human intestinal alkaline phosphatase – biochemical, dose response (AID 488873); type: functional
Intestinal-type alkaline phosphatase (Homo sapiens, UniProt P09923), sequence (P09923 whole entry): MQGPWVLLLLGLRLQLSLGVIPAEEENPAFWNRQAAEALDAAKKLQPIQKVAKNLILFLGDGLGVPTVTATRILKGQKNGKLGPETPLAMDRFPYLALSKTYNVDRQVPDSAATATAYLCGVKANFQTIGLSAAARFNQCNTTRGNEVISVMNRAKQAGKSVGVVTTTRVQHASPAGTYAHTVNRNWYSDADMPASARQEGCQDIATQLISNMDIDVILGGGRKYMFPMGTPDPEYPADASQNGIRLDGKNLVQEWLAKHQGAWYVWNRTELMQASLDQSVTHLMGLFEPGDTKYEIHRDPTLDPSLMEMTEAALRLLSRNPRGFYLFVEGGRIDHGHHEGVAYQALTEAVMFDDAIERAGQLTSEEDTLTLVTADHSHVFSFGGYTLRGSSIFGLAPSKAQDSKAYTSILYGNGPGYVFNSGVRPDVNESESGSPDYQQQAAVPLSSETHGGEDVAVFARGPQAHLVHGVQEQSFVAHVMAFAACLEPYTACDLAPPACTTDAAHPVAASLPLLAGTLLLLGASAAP

[3] = target: T1, Alkaline phosphatase, tissue-nonspecific isozyme (Homo sapiens, UniProt P05186); experiment: activation of tissue-nonspecific alkaline phosphatase – biochemical, TNAP isozyme, mouse IAP uHTS hits, selectivity assay for mouse IAP activator project, dose response (AID 488880); type: functional
T1 sequence (P05186 whole entry): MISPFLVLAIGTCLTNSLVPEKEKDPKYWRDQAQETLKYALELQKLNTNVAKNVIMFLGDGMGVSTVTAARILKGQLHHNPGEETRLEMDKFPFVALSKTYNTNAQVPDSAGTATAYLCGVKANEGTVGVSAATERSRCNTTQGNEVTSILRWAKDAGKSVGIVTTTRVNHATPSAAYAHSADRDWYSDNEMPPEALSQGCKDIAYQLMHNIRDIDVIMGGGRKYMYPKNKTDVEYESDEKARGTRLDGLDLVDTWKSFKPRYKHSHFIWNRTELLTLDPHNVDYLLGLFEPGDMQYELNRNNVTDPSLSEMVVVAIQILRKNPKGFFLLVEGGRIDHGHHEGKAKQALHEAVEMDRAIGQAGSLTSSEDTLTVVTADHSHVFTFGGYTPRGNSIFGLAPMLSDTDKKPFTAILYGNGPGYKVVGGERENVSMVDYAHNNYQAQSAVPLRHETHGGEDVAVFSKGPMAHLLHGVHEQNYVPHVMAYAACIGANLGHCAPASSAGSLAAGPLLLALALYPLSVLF

[4] = target: T2, Polyadenylate-binding protein 1 (Homo sapiens, UniProt P11940); experiment: MLLE binding blockers, Cy5 peptide tracer – biochemical, fluorescence polarization, Cy5-PAM2 peptide, secondary, miRNA deadenylation inhibitor project, dose response (AID 602260); type: functional; settings: read-out: IC50_Mean
T2 sequence (P11940 whole entry): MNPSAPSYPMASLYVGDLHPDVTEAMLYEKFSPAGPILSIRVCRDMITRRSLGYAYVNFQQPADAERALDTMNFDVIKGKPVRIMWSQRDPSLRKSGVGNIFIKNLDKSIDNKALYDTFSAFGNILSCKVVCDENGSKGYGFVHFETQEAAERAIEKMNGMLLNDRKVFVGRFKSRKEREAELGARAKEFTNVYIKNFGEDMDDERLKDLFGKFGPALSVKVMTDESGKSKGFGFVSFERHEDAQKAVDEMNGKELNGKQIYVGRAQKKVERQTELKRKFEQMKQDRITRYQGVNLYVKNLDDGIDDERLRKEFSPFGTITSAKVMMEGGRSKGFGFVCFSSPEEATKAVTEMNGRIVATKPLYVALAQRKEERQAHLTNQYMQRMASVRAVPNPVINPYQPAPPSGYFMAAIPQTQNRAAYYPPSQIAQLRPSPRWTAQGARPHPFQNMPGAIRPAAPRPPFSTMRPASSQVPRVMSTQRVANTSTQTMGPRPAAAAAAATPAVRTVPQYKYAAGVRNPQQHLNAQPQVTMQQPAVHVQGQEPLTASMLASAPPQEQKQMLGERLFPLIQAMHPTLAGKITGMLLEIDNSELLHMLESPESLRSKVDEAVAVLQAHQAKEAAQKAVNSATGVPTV

[5] = target: DNA dC->dU-editing enzyme APOBEC-3G (Homo sapiens, UniProt Q9HC16); experiment: Dose Response confirmation of small molecule APOBEC3G DNA Deaminase Inhibitors via a fluorescence-based single-stranded DNA deaminase assay. [Related pubchem assays (depositor defined):AID493012, AID493028]; type: functional
DNA dC->dU-editing enzyme APOBEC-3G, sequence (Q9HC16 whole entry): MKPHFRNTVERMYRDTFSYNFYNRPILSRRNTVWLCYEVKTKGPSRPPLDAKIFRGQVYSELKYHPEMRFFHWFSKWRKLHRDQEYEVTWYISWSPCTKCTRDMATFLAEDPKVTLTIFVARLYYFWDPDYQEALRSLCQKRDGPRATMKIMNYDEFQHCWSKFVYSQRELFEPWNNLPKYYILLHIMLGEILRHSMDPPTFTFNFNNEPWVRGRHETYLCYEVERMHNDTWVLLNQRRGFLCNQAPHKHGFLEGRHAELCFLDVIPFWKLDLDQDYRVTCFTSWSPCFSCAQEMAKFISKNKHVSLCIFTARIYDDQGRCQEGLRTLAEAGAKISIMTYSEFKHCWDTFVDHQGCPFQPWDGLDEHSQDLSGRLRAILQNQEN

Hexokinase-1 = target: T3, Hexokinase-1 (Homo sapiens, UniProt P19367); experiment: HK1 enzyme activation by HKDC1 hits – biochemical, selectivity assay for HKDC1 activator project, dose response (AID 504762); type: functional
T3 sequence (P19367 whole entry): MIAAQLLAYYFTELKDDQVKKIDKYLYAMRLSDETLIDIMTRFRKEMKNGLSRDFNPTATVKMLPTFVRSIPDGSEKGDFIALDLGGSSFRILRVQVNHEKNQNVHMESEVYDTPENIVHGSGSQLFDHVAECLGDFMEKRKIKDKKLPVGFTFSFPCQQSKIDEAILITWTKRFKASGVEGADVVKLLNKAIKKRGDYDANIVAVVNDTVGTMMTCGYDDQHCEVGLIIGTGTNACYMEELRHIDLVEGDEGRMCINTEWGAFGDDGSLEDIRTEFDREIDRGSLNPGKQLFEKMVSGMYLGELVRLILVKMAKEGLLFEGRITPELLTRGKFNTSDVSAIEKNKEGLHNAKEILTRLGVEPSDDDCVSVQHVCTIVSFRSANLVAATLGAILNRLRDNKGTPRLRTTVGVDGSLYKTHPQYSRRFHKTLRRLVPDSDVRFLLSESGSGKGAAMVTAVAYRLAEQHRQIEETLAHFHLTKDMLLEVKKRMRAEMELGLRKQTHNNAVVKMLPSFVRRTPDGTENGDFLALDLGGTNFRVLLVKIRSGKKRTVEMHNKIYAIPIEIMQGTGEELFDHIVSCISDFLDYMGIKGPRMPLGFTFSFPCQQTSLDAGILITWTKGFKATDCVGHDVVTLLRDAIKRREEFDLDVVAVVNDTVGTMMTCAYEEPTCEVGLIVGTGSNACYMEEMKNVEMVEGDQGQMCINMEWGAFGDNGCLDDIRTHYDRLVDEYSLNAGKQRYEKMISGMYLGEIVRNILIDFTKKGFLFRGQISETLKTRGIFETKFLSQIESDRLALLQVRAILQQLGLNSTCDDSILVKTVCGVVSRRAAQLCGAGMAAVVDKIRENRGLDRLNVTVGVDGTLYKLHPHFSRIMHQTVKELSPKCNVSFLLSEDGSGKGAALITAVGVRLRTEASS

[6] = target: T2, Polyadenylate-binding protein 1; experiment: MLLE domain peptide-binding blockers, IC50 – biochemical, fluorescence polarization, FITC-PAM2 peptide, dose response (AID 602259); type: functional; settings: read-out: IC50_Mean
[7] = target: Eukaryotic translation initiation factor 4E (Mus musculus, UniProt P63073); experiment: blockers of eIF4G binding by eIF4E – biochemical, TR-FRET, dose response (AID 855); type: functional;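 note: potency for disrupting eIF4E binding to eIF4GI seen as loss of FRET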
Eukaryotic translation initiation factor 4E, sequence (P63073 whole entry): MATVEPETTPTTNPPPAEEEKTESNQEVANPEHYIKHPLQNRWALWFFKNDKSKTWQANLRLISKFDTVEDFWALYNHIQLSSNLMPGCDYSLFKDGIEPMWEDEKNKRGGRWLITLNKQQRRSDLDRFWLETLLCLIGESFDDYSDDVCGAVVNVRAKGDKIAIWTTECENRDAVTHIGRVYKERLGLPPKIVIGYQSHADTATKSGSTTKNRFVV

Hexokinase HKDC1 = target: T4, Hexokinase HKDC1 (Homo sapiens, UniProt Q2TB90); experiment: activation of HKDC1 glucose phosphorylation – biochemical, W721R variant, dose response (AID 504730); type: functional
T4 sequence (Q2TB90 whole entry): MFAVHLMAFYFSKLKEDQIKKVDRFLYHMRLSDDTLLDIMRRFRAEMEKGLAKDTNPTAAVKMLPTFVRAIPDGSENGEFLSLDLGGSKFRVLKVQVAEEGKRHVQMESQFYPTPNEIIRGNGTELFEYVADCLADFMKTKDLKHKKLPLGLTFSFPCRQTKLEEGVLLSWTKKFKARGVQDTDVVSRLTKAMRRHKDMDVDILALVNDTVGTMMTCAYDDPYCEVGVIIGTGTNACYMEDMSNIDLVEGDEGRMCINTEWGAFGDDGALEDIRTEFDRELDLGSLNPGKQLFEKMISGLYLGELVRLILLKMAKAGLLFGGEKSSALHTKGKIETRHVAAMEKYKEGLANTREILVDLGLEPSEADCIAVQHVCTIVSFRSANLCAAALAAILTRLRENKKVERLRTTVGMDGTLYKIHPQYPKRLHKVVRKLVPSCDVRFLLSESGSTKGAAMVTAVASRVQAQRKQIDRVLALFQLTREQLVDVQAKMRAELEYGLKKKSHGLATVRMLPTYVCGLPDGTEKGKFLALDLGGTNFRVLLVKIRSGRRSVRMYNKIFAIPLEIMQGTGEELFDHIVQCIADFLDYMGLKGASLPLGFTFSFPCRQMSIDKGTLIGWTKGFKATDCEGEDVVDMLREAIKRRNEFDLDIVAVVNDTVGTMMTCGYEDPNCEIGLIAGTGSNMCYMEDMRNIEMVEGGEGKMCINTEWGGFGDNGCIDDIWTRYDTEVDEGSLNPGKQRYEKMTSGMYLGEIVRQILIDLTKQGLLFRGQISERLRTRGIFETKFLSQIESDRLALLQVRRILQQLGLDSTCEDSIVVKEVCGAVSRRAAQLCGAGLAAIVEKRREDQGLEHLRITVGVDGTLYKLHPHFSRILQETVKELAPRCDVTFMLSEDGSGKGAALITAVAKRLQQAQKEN

Large T antigen, sequence (P03070 whole entry): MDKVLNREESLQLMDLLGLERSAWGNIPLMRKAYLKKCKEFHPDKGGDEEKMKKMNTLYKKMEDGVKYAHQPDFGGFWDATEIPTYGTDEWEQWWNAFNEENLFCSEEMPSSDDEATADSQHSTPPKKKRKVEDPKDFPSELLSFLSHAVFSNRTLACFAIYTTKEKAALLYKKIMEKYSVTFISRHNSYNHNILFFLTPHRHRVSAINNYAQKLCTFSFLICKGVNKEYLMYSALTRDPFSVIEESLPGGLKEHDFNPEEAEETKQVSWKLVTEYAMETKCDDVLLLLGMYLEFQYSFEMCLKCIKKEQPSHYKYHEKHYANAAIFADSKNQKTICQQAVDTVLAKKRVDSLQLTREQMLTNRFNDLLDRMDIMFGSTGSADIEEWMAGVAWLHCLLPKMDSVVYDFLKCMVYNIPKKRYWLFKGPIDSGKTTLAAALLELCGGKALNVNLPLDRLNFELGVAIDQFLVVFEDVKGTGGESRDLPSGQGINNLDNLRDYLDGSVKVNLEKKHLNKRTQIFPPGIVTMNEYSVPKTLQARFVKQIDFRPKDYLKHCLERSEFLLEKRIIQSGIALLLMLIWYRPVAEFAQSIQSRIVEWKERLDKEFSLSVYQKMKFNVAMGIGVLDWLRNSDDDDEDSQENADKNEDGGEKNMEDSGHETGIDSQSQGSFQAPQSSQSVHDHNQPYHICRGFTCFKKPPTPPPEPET

SMILES | IC50 (Large T antigen) | EC50 [1] | EC50 [2] | EC50 [3] | IC50 [4] | IC50 [5] | EC50 (Hexokinase-1) | IC50 [6] | IC50 [7] | EC50 (Hexokinase HKDC1)
N#C/C(=C\c1coc2ccc(O)cc2c1=O)C(=O)/N=c1\[nH]c2ccccc2s1 | 15.9 µM (active) | 85 µM (active) | 81.5 µM (active) | 88.5 µM (active) |  |  |  |  |  | 
CCOC(=O)c1c(NC(=O)CSc2nnnn2-c2ccc(OC)cc2)sc(C)c1C |  |  |  |  | > 66 µM (inactive) | 54.7 µM (active) | 37.4 µM (inactive) | > 66 µM (inactive) | > 64 µM (inactive) | > 80 µM (inactive)
